Measured values reported in patent US12173018B2, “Penicillin-binding protein inhibitors” (priority 2018, dated 2024).
pEC50: −log10 of the molar value. Read-outs that look alike come from different tables or passages of the source.

Biological target: E. coli PBP3 (Escherichia coli (strain K12), UniProt P0AD68)
Assay: E. coli PBP3 Bocillin-FL fluorescence polarization competition binding assay
Text: To determine the ability of boronic acid-based test PBP inhibitors to bind Penicillin Binding Proteins (PBPs), Bocillin-FL (fluorescently-labeled penicillin V; ThermoFisher Scientific) was used in a fluorescence polarization (FP) competition binding assay to assess inhibitor binding to PBP2, PBP3 or PBP4 from Escherichia coli. PBPs were cloned and purified as described previously (King, D. T, et al., ACS Infectious Diseases 2015, 1, 175-184). To establish assay conditions for competition binding, an enzyme titration/saturation binding experiment was initially performed. Bocillin-FL was prepared at 0.2 μM in a buffer comprised of 50 mM Hepes (pH 8.0), 300 mM NaCl and 5% (v/v) glycerol. Saturation binding was performed by mixing 40 μl of PBP solutions ranging in concentrations from 0-12 μM with 40 μl of the 0.2 μM Bocillin-FL solution, in individual wells of a black 384-well microplate. FP was measured immediately upon mixing (Excitation, 490 nm; Emission, 520 nm; g-factor, 0.96), using a Cytation3 (BioTek) microplate reader and measured continuously for up to 120 minutes. […] Assays (80 μl final volume) were performed with PBPs at a final concentration of 1.5 μM, Bocillin-FL at 0.1 μM and beta-lactam concentrations that ranged from 0-1000 μM. […] Bocillin-FL was added and the FP immediately measured for 60 minutes (90 minutes for PBP2). The beta-lactam potency was reported as the concentration of beta-lactam required to reduce binding of Bocillin-FL by […] (EC50). […] Binding assays for boronic acid PBP inhibitors were performed in an identical fashion.

[1] = fluorescence polarization competition binding with Bocillin-FL, read-out: E. coli K12 PBP3 Potency

Chain of E. coli PBP3 (P0AD68 whole entry): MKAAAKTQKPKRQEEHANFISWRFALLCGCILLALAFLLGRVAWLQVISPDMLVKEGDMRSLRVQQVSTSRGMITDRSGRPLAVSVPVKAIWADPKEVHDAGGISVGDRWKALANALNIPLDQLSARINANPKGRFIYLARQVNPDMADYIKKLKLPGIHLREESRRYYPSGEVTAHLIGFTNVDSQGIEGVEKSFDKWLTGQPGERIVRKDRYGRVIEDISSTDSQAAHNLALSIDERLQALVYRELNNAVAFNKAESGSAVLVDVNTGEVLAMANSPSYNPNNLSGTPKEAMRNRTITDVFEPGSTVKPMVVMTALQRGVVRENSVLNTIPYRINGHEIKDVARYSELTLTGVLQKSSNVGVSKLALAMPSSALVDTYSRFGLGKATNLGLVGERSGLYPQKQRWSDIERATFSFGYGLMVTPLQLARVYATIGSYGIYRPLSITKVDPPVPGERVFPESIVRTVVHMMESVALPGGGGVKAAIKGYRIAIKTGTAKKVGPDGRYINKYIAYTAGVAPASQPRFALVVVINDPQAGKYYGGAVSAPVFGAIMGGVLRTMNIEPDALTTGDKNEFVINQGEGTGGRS

**Q.** `CCN1CCN(C(=O)NC(C(=O)N[C@H]2Cc3cccc(C(=O)O)c3OB2O)[C@H](O)C(F)(F)F)C(=O)C1=O` (mixture of isomers) [Example 157, (3R)-3-((3S)-2-(4-ethyl-2,3-dioxopiperazine-1-carboxamido)-4,4,4-trifluoro-3-hydroxybutanamido)-2-hydroxy-3,4-dihydro-2H-benzo[e][1,2]oxaborinine-8-carboxylic acid] was tested. Which pEC50 did it give?
**A.** < 3.30

**Q.** `CCN1CCN(C(=O)NC(CC(=O)N[C@H]2Cc3cccc(C(=O)O)c3OB2O)c2cc(O)c(O)c(Br)c2)C(=O)C1=O` (stereo partly drawn) [Example 42, (3R)-3-(3-(3-bromo-4,5-dihydroxyphenyl)-3-(4-ethyl-2,3-dioxopiperazine-1-carboxamido)propanamido)-2-hydroxy-3,4-dihydro-2H-benzo[e][1,2]oxaborinine-8-carboxylic acid] was tested. Which pEC50 did it give?
**A.** 3.30 to 4.52

**Q.** With `CCN1CCN(C(=O)NC(C(=O)N[C@H]2Cc3cccc(C(=O)O)c3OB2O)c2cccc(O)c2O)C(=O)C1=O` (stereo partly drawn) [Example 44, (3R)-3-(2-(2,3-dihydroxyphenyl)-2-(4-ethyl-2,3-dioxopiperazine-1-carboxamido)acetamido)-2-hydroxy-3,4-dihydro-2H-benzo[e][1,2]oxaborinine-8-carboxylic acid] as the compound, how does the pEC50 [1] read?
**A.** < 3.30

**Q.** `CCN1CCN(C(=O)NC(C(=O)N[C@H]2Cc3cccc(C(=O)O)c3OB2O)c2ccc(O)c(OCCNC(=O)OCc3ccccc3)c2)C(=O)C1=O` (stereo partly drawn) [Example 50, (3R)-3-(2-(3-(2-(((benzyloxy)carbonyl)amino)ethoxy)-4-hydroxyphenyl)-2-(4-ethyl-2,3-dioxopiperazine-1-carboxamido)acetamido)-2-hydroxy-3,4-dihydro-2H-benzo[e][1,2]oxaborinine-8-carboxylic acid] was tested. Which pEC50 did it give?
**A.** 3.30 to 4.52

**Q.** With `CCN1CCN(C(=O)NC(C(=O)N[C@H]2Cc3cccc(C(=O)O)c3OB2O)c2cccc(OC)n2)C(=O)C1=O` (stereo partly drawn) [Example 120, (3R)-3-(2-(4-ethyl-2,3-dioxopiperazine-1-carboxamido)-2-(6-methoxypyridin-2-yl)acetamido)-2-hydroxy-3,4-dihydro-2H-benzo[e][1,2]oxaborinine-8-carboxylic acid] as the compound, how does the pEC50 read?
**A.** 3.30 to 4.52

**Q.** `CCN1CCN(C(=O)NC(C(=O)N[C@H]2Cc3cccc(C(=O)O)c3OB2O)C2CCCO2)C(=O)C1=O` (stereo partly drawn) [Example 122, (3R)-3-(2-(4-ethyl-2,3-dioxopiperazine-1-carboxamido)-2-(tetrahydrofuran-2-yl)acetamido)-2-hydroxy-3,4-dihydro-2H-benzo[e][1,2]oxaborinine-8-carboxylic acid] was tested. Which pEC50 did it give?
**A.** 3.30 to 4.52

**Q.** With `CCCN1CCN(C(=O)N[C@@H](C(=O)N[C@H]2Cc3ccc(F)c(C(=O)O)c3OB2O)[C@@H](C)O)C(=O)C1=O` [Example 133, (R)-3-((2R,3R)-2-(2,3-dioxo-4-propylpiperazine-1-carboxamido)-3-hydroxybutanamido)-7-fluoro-2-hydroxy-3,4-dihydro-2H-benzo[e][1,2]oxaborinine-8-carboxylic acid] as the compound, how does the pEC50 [1] read?
**A.** < 3.30

**Q.** `CCN1CCN(C(=O)N[C@H](C(=O)N[C@H]2Cc3ccc(F)c(C(=O)O)c3OB2O)c2ccsc2)C(=O)C1=O` [Example 139, (R)-3-((S)-2-(4-ethyl-2,3-dioxopiperazine-1-carboxamido)-2-(thiophen-3-yl)acetamido)-7-fluoro-2-hydroxy-3,4-dihydro-2H-benzo[e][1,2]oxaborinine-8-carboxylic acid] was tested. Which pEC50 did it give?
**A.** 3.30 to 4.52

**Q.** How did the pEC50 turn out when `CCN1CCN(C(=O)N[C@@H](C(=O)N[C@H]2Cc3cccc(C(=O)O)c3OB2O)[C@H](C)OC)C(=O)C1=O` [Example 146, (R)-3-((2R,3S)-2-(4-ethyl-2,3-dioxopiperazine-1-carboxamido)-3-methoxybutanamido)-2-hydroxy-3,4-dihydro-2H-benzo[e][1,2]oxaborinine-8-carboxylic acid] was run?
**A.** 3.30 to 4.52

**Q.** How did the pEC50 [1] turn out when `CCN1CCN(C(=O)N[C@H](C(=O)N[C@H]2Cc3cccc(C(=O)O)c3OB2O)[C@H](C)OC)C(=O)C1=O` [Example 147, (R)-3-((2S,3S)-2-(4-ethyl-2,3-dioxopiperazine-1-carboxamido)-3-methoxybutanamido)-2-hydroxy-3,4-dihydro-2H-benzo[e][1,2]oxaborinine-8-carboxylic acid] was run?
**A.** < 3.30

**Q.** How did the pEC50 turn out when `CCN1CCN(C(=O)N[C@@H](C(=O)N[C@H]2Cc3ccc(F)c(C(=O)O)c3OB2O)[C@H](O)C(F)(F)F)C(=O)C1=O` [Example 158, (R)-3-((2R,3S)-2-(4-ethyl-2,3-dioxopiperazine-1-carboxamido)-4,4,4-trifluoro-3-hydroxybutanamido)-7-fluoro-2-hydroxy-3,4-dihydro-2H-benzo[e][1,2]oxaborinine-8-carboxylic acid] was run?
**A.** 3.30 to 4.52

**Q.** `CCN1CCN(C(=O)N[C@H](C(=O)N[C@H]2Cc3ccc(F)c(C(=O)O)c3OB2O)[C@H](O)C(F)(F)F)C(=O)C1=O` [Example 159, (R)-3-((2S,3S)-2-(4-ethyl-2,3-dioxopiperazine-1-carboxamido)-4,4,4-trifluoro-3-hydroxybutanamido)-7-fluoro-2-hydroxy-3,4-dihydro-2H-benzo[e][1,2]oxaborinine-8-carboxylic acid] was tested. Which pEC50 [1] did it give?
**A.** < 3.30

**Q.** `CCN1CCN(C(=O)N[C@@H](C(=O)N[C@H]2Cc3ccc(F)c(C(=O)O)c3OB2O)[C@H](O)C(F)F)C(=O)C1=O` [Example 163, (R)-3-((2R,3S)-2-(4-ethyl-2,3-dioxopiperazine-1-carboxamido)-4,4-difluoro-3-hydroxybutanamido)-7-fluoro-2-hydroxy-3,4-dihydro-2H-benzo[e][1,2]oxaborinine-8-carboxylic acid] was tested. Which pEC50 [1] did it give?
**A.** > 4.52

**Q.** `CCN1CCN(C(=O)N[C@H](C(=O)N[C@H]2Cc3ccc(F)c(C(=O)O)c3OB2O)[C@H](O)C(F)F)C(=O)C1=O` [Example 164, (R)-3-((2S,3S)-2-(4-ethyl-2,3-dioxopiperazine-1-carboxamido)-4,4-difluoro-3-hydroxybutanamido)-7-fluoro-2-hydroxy-3,4-dihydro-2H-benzo[e][1,2]oxaborinine-8-carboxylic acid] was tested. Which pEC50 [1] did it give?
**A.** < 3.30

**Q.** How did the pEC50 turn out when `CCN1CCN(C(=O)NC(C(=O)N[C@H]2Cc3ccc(F)c(C(=O)O)c3OB2O)c2cscn2)C(=O)C1=O` (stereo partly drawn) [Example 165, (3R)-3-(2-(4-ethyl-2,3-dioxopiperazine-1-carboxamido)-2-(thiazol-4-yl)acetamido)-7-fluoro-2-hydroxy-3,4-dihydro-2H-benzo[e][1,2]oxaborinine-8-carboxylic acid] was run?
**A.** 3.30 to 4.52

**Q.** With `CCN1CCN(C(=O)N[C@@H](C(=O)N[C@H]2Cc3cccc(C(=O)O)c3OB2O)[C@H](O)C(F)F)C(=O)C1=O` [Example 173, (R)-3-((2R,3S)-2-(4-ethyl-2,3-dioxopiperazine-1-carboxamido)-4,4-difluoro-3-hydroxybutanamido)-2-hydroxy-3,4-dihydro-2H-benzo[e][1,2]oxaborinine-8-carboxylic acid] as the compound, how does the pEC50 [1] read?
**A.** < 3.30

**Q.** How did the pEC50 [1] turn out when `CCN1CCN(C(=O)N[C@H](C(=O)N[C@H]2Cc3cccc(C(=O)O)c3OB2O)[C@H](O)C(F)F)C(=O)C1=O` [Example 174, (R)-3-((2S,3S)-2-(4-ethyl-2,3-dioxopiperazine-1-carboxamido)-4,4-difluoro-3-hydroxybutanamido)-2-hydroxy-3,4-dihydro-2H-benzo[e][1,2]oxaborinine-8-carboxylic acid] was run?
**A.** < 3.30

**Q.** `CCN1CCN(C(=O)NC(C(=O)N[C@H]2Cc3cc(F)c(F)c(C(=O)O)c3OB2O)c2csc(N)n2)C(=O)C1=O` (stereo partly drawn) [Example 175, (3R)-3-(2-(2-aminothiazol-4-yl)-2-(4-ethyl-2,3-dioxopiperazine-1-carboxamido)acetamido)-6,7-difluoro-2-hydroxy-3,4-dihydro-2H-benzo[e][1,2]oxaborinine-8-carboxylic acid] was tested. Which pEC50 did it give?
**A.** 3.30 to 4.52

**Q.** With `CCN1CCN(C(=O)NC(C(=O)N[C@H]2Cc3c(F)cc(F)c(C(=O)O)c3OB2O)c2csc(N)n2)C(=O)C1=O` (stereo partly drawn) [Example 184, (3R)-3-(2-(2-aminothiazol-4-yl)-2-(4-ethyl-2,3-dioxopiperazine-1-carboxamido)acetamido)-5,7-difluoro-2-hydroxy-3,4-dihydro-2H-benzo[e][1,2]oxaborinine-8-carboxylic acid] as the compound, how does the pEC50 read?
**A.** 3.30 to 4.52

**Q.** With `CCN1CCN(C(=O)NC(C(=O)N[C@H]2Cc3cccc(C(=O)O)c3OB2O)c2csc(N)n2)C(O)C1=O` (stereo partly drawn) [Example 193, (3R)-3-(2-(2-aminothiazol-4-yl)-2-(4-ethyl-2-hydroxy-3-oxopiperazine-1-carboxamido)acetamido)-2-hydroxy-3,4-dihydro-2H-benzo[e][1,2]oxaborinine-8-carboxylic acid] as the compound, how does the pEC50 read?
**A.** 3.30 to 4.52
